We go through 34 compounds from US10662183B2, “Inhibitors of myocardin-related transcription factor and serum response factor (MRTF/SRF)-mediated gene transcription and methods for use of the same” (THE REGENTS OF THE UNIVERSITY OF MICHIGAN, priority 2014, dated 2020).

This assay concerns SRE.L-firefly luciferase reporter (Rho/MKL1 pathway) in PC-3 prostate cancer cells. The assay is described as follows: SRE.L-luciferase reporter assay. The settings on record: PC-3 cells transfected with Gα12Q231L, SRE.L and pRL-TK reporters, compound 19 hrs. Format: cell-based. The method, then:
Seed PC-3 prostate cancer cells (40,000 cells/well) were grown in 96-well plates in 10% FBS containing DMEM medium. Cells were transiently transfected with the Ga12QL activator of the Rho/MKL1 pathway, along with the SRE.L-firefly luciferase reporter construct for 6 hours. Additionally, cells were co-transfected with the TK-Renilla luciferase reporter as an indicator of non-specific compound effects. Various concentrations of the compounds disclosed herein were added to the 96-well plates. Plates were incubated for 19 hours at 37° C. and 5% C02 in 0.5% FBS containing DMEM medium. Cells were lysed with IX Passive Lysis Buffer (Promega). Plates were incubated for 30 minutes at room temperature. Luminescence counts were read with a Victor2 (Perkin-Elmer) plate reader.
One hour prior to cell lysis for the dual luciferase assay, 10 μl: per well of WST1 reagent (Roche) was added to the 96-well plates. Plates were incubated for 1 hour at 37° C. and 5% CO2. Cell viability was measured by WST1 absorbance at 450 nm with a Victor2 (Perkin-Elmer) plate reader.
Biological activity of the compounds disclosed herein were assessed in the SRE.L luciferase reporter assay. PC-3 prostate cancer cells were co-transfected with 2 ng of the Gα12Q231L expression plasmid along with 50 ng of the SRE.L and 7 ng of the pRL-TK luciferase reporter plasmids, as described in the Materials and Methods section. Cells were treated with 0 (vehicle, DMSO alone), 1, 3, 10, 30, and 100 μM of a compound disclosed herein for 19 hrs after transfection before lysis. Luminescence was determined as described in the Materials and Methods section. Just before cell lysis, the viability of the cells was measured using the WST-1 cell proliferation reagent as described in the Materials and Methods section. Data are expressed as percentage of inhibition (DMSO alone=0%). The experiments were performed three separate times to achieve n=3 in triplicate.
(In general: A reporter such as luciferase makes a cellular process visible.)

Broadly, the IC50 is the midpoint of a concentration-inhibition curve. Low values mean greater potency in that assay, high ones weaker potency in that assay. As for `O=C(NC1CC(C(=O)Nc2ccc(Cl)cc2)CN(C(=O)c2cccc(-c3ccco3)c2)C1)Oc1ccccc1` (stereo not shown) [Example E-056, phenyl (5-((4-chlorophenyl)carbamoyl)-1-(3-(furan-2-yl)benzoyl)piperidin-3-yl)carbamate], the IC50 was 38 µM.

Compound `COC(=O)NC1CC(C(=O)Nc2ccc(Cl)cc2)CN(C(=O)c2cccc(-c3ccco3)c2)C1` (stereo not shown) [Example E-057, methyl (5-((4-chlorophenyl)carbamoyl)-1-(3-(furan-2-yl)benzoyl)piperidin-3-yl)carbamate] gave an IC50 (19 h) of 22 µM.

Where the note is “19 h”, `CCOC(=O)NC1CC(C(=O)Nc2ccc(Cl)cc2)CN(C(=O)c2cccc(-c3ccco3)c2)C1` (stereo not shown) [Example E-058, ethyl (5-((4-chlorophenyl)carbamoyl)-1-(3-(furan-2-yl)benzoyl)piperidin-3-yl)carbamate] showed a 50% inhibitory concentration (IC50) of 15 µM.

As to `O=C(c1cccc(-c2ccco2)c1)N1CC(COc2ccc(Cl)cc2)CC(F)(F)C1` (stereo not shown) [Example E-059, (5-((4-chlorophenoxy)methyl)-3,3-difluoropiperidin-1-yl) (3-(furan-2-yl)phenyl)methanone], the IC50 (19 h) is 31 µM.

`O=C(c1cccc(-c2ccco2)c1)N1CCCC(NS(=O)(=O)c2ccc(Cl)cc2)C1` (stereo not shown) [Example E-062, 4-chloro-N-(1-(3-(furan-2-yl)benzoyl)piperidin-3-yl)benzenesulfonamide] gave an IC50 (19 h) of 21 µM.

In the case of `O=C1CC(C(=O)Nc2ccc(Cl)cc2)CN(C(=O)c2cccc(-c3ccco3)c2)C1` (stereo not shown) [Example E-063, N-(4-chlorophenyl)-1-(3-(furan-2-yl)benzoyl)-5-oxopiperidine-3-carboxamide], the IC50 (19 h) is 15 µM.

Where the note is “19 h”, `CN(C)C1CC(C(=O)Nc2ccc(Cl)cc2)CN(C(=O)c2cccc(-c3ccco3)c2)C1` (stereo not shown) [Example E-064, N-(4-chlorophenyl)-5-(dimethylamino)-1-(3-(furan-2-yl)benzoyl)piperidine-3-carboxamide] had an IC50 of 6.9 µM.

`O=C(NC1CCCN(C(=O)c2cccc(-c3ccco3)c2)C1)c1ccc(Cl)cc1` (stereo not shown) [Example E-065, 4-chloro-N-(1-(3-(furan-2-yl)benzoyl)piperidin-3-yl)benzamide] yielded an IC50 (19 h) of 13 µM.

Take `O=C(c1cccc(-c2ccco2)c1)N1CCCC(COc2ccc(Cl)cc2)C1` (stereo not shown) [Example E-066, (3-((4-chlorophenoxy)methyl)piperidin-1-yl)(3-(furan-2-yl)phenyl)methanone]: for the setting “19 h”, the half-inhibitory concentration (IC50) was 2.3 µM.

For `O=C(Nc1ccc(Cl)cc1)C1CN(C(=O)c2cccc(-n3cccn3)c2)CC(F)(F)C1` (stereo not shown) [Example E-067, 1-(3-(1H-pyrazol-1-yl)benzoyl)-N-(4-chlorophenyl)-5,5-difluoropiperidine-3-carboxamide], for the setting “19 h”, 7 µM corresponded to half-maximal inhibition (IC50).

Compound `O=C(Nc1ccc(Cl)cc1)C1CN(C(=O)c2cccc(-c3ccncc3)c2)CC(F)(F)C1` (stereo not shown) [Example E-068, N-(4-chlorophenyl)-5,5-difluoro-1-(3-(pyridin-4-yl)benzoyl) piperidine-3-carboxamide] returned a concentration for half-maximal inhibition (IC50) (19 h) of 0.78 µM.

As for `Cc1oc(-c2ccccc2)nc1C(=O)N1CCCC(C(=O)Nc2ccc(Cl)cc2)C1` (stereo not shown) [Example E-069, N-(4-chlorophenyl)-1-(5-methyl-2-phenyloxazole-4-carbonyl)piperidine-3-carboxamide], for the setting “19 h”, the IC50 was 1.8 µM.

As to `O=C(Nc1ccc(Cl)cc1)C1CN(C(=O)Cc2nc3ccccc3[nH]2)CC(F)(F)C1` (stereo not shown) [Example E-070, 1-(2-(1H-benzo[d]imidazol-2-yl)acetyl)-N-(4-chlorophenyl)-5,5-difluoropiperidine-3-carboxamide], inhibition (19 h) was half-maximal at 9.1 µM (IC50).

With `O=C(Nc1ccc(Cl)cc1)C1CCCN(C(=O)Cc2cc3ccccc3o2)C1` (stereo not shown) [Example E-071, 1-(2-(benzofuran-2-yl)acetyl)-N-(4-chlorophenyl)piperidine-3-carboxamide], the IC50 (19 h) was determined as 12 µM.

In the case of `Cc1nc(-c2ccccc2)sc1C(=O)N1CCCC(C(=O)Nc2ccc(Cl)cc2)C1` (stereo not shown) [Example E-072, N-(4-chlorophenyl)-1-(4-methyl-2-phenylthiazole-5-carbonyl)piperidine-3-carboxamide], where the note is “19 h”, the midpoint of inhibition, the IC50, lay at 0.084 µM.

The compound `O=C(Nc1ccc(Cl)cc1)C1CCCN(C(=O)c2csc(-c3ccccc3)n2)C1` (stereo not shown) [Example E-073, N-(4-chlorophenyl)-1-(2-phenylthiazole-4-carbonyl)piperidine-3-carboxamide] showed an IC50 (19 h) of 0.45 µM.

For `O=C(Nc1ccc(Cl)cc1)C1CCCN(C(=O)c2ccc3scnc3c2)C1` (stereo not shown) [Example E-074, 1-(benzo[d]thiazole-5-carbonyl)-N-(4-chlorophenyl)piperidine-3-carboxamide], under “19 h”, the IC50 is greater than 100 µM.

Where the note is “19 h”, `O=C(Nc1ccc(Cl)cc1)C1CN(C(=O)c2nc3ccccc3[nH]2)CC(F)(F)C1` (stereo not shown) [Example E-075, 1-(1H-benzo[d]imidazole-2-carbonyl)-N-(4-chlorophenyl)-5,5-difluoropiperidine-3-carboxamide] came in with an IC50 of 0.68 µM.

Under “19 h”, `O=C(Nc1ccc(Cl)cc1)C1CN(C(=O)c2ccc3cc[nH]c3c2)CC(F)(F)C1` (stereo not shown) [Example E-076, N-(4-chlorophenyl)-5,5-difluoro-1-(1H-indole-6-carbonyl)piperidine-3-carboxamide] had an IC50 of 1.6 µM.

For the setting “19 h”, `CC(C)(C(=O)N1CCCC(C(=O)Nc2ccc(Cl)cc2)C1)c1csc(-c2ccc(F)cc2)n1` (stereo not shown) [Example E-077, N-(4-chlorophenyl)-1-(2-(2-(4-fluorophenyl)thiazol-4-yl)-2-methylpropanoyl)piperidine-3-carboxamide] showed a half-maximal inhibitory concentration (IC50) of 0.81 µM.

Turning to `O=C(Nc1ccc(Cl)cc1)C1CCCN(C(=O)Cc2csc(-c3ccc(F)cc3)n2)C1` (stereo not shown) [Example E-078, N-(4-chlorophenyl)-1-(2-(2-(4-fluorophenyl)thiazol-4-yl)acetyl)piperidine-3-carboxamide], under “19 h”, the IC50 stood at 1 µM.

With `O=C(Nc1ccc(Cl)cc1)C1CCCN(C(=O)c2cc3ccc(F)cc3[nH]2)C1` (stereo not shown) [Example E-079, N-(4-chlorophenyl)-1-(6-fluoro-1H-indole-2-carbonyl)piperidine-3-carboxamide], the midpoint of inhibition (19 h), the IC50, lay at 0.92 µM.

In turn, `O=C(Nc1ccc(Cl)cc1)C1CCCN(C(=O)c2cc3ccccc3[nH]2)C1` (stereo not shown) [Example E-080, N-(4-chlorophenyl)-1-(1H-indole-2-carbonyl)piperidine-3-carboxamide] gave a 50% inhibitory concentration (IC50) (19 h) of 0.31 µM.

`COc1ccc2[nH]c(C(=O)N3CCCC(C(=O)Nc4ccc(Cl)cc4)C3)cc2c1` (stereo not shown) [Example E-081, N-(4-chlorophenyl)-1-(5-methoxy-1H-indole-2-carbonyl)piperidine-3-carboxamide]: for the setting “19 h”, the IC50 stood at 0.26 µM.

In the case of `O=C(Nc1ccc(Cl)cc1)C1CCCN(C(=O)c2ccc3[nH]ncc3c2)C1` (stereo not shown) [Example E-082, N-(4-chlorophenyl)-1-(1H-indazole-5-carbonyl)piperidine-3-carboxamide], the IC50 (19 h) was 0.37 µM.

Where the note is “19 h”, `O=C(Nc1ccc(Cl)cc1)C1CCCN(C(=O)CCc2c[nH]c3ccccc23)C1` (stereo not shown) [Example E-083, 1-(3-(1H-indol-3-yl)propanoyl)-N-(4-chlorophenyl) piperidine-3-carboxamide] registered a half-inhibitory concentration (IC50) of 0.67 µM.

Turning to `O=C(Nc1ccc(Cl)cc1)C1CCCN(C(=O)Cc2c[nH]c3ccccc23)C1` (stereo not shown) [Example E-084, 1-(2-(1H-indol-3-yl)acetyl)-N-(4-chlorophenyl)piperidine-3-carboxamide], the concentration for half-maximal inhibition (IC50) (19 h) worked out at 0.39 µM.

In the case of `O=C(Nc1ccc(Cl)cc1)C1CCCN(C(=O)c2cccc3[nH]ncc23)C1` (stereo not shown) [Example E-085, N-(4-chlorophenyl)-1-(1H-indazole-4-carbonyl)piperidine-3-carboxamide], the concentration for half-maximal inhibition (IC50) (19 h) is 0.31 µM.

For `O=C(Nc1ccc(Cl)cc1)C1CCCN(C(=O)c2ccc3cc[nH]c3c2)C1` (stereo not shown) [Example E-086, N-(4-chlorophenyl)-1-(1H-indole-6-carbonyl)piperidine-3-carboxamide], under “19 h”, 0.097 µM corresponded to half-maximal inhibition (IC50).

The compound `O=C(Nc1ccc(Cl)cc1)C1CCCN(C(=O)c2ccc3[nH]ccc3c2)C1` (stereo not shown) [Example E-087, N-(4-chlorophenyl)-1-(1H-indole-5-carbonyl)piperidine-3-carboxamide] had a concentration for half-maximal inhibition (IC50) (19 h) of 0.13 µM.

For the setting “19 h”, `O=C(Nc1ccc(Cl)cc1)C1CCCN(C(=O)c2n[nH]c3ccccc23)C1` (stereo not shown) [Example E-088, N-(4-chlorophenyl)-1-(1H-indazole-3-carbonyl)piperidine-3-carboxamide] returned an IC50 of 1.5 µM.

On to `O=C(Nc1ccc(Cl)cc1)C1CCCN(C(=O)c2nc3ccccc3[nH]2)C1` (stereo not shown) [Example E-089, 1-(1H-benzo[d]imidazole-2-carbonyl)-N-(4-chlorophenyl)piperidine-3-carboxamide], for which the IC50 (19 h) is 0.12 µM.

Consider `O=C(Nc1ccc(Cl)cc1)C1CCCN(C(=O)c2ccccc2-n2cccn2)C1` (stereo not shown) [Example E-090, 1-(2-(1H-pyrazol-1-yl)benzoyl)-N-(4-chlorophenyl) piperidine-3-carboxamide], for which the concentration for half-maximal inhibition (IC50) (19 h) was found to be 0.24 µM.

As to `O=C(Nc1ccc(Cl)cc1)C1CCCN(C(=O)c2ccccc2-n2ccnc2)C1` (stereo not shown) [Example E-091, 1-(2-(1H-imidazol-1-yl)benzoyl)-N-(4-chlorophenyl) piperidine-3-carboxamide], the 50% inhibitory concentration (IC50) (19 h) was 4.1 µM.
